The text below walks through data of ChEMBL document CHEMBL3046057, “Synthesis and leishmanicidal activity of quinolinetriclosan and quinolineeugenol hybrids” (Med Chem Res, 2012).

As a reminder, the EC50 is the concentration at which the effect is half-maximal. One may read the LC50 as the concentration that kills 50% of the test population.

In brackets after ≈: the same amount, converted by molar mass.

Data set [1] is described as follows: (§1) Cytotoxicity against Homo sapiens (human) U937 cells assessed as cell viability after 72 hr by MTT assay. The class given is cell-based, U-937. As to conditions: U937 cells, read-out: LC50. On the technique in general: Tetrazolium assays rely on reduction of a dye to a coloured formazan, in cell work by metabolically active cells.
For data set [2], the system named is Leishmania panamensis. Put plainly: Leishmanicidal activity against axenic amastigote stage of Leishmania panamensis MHOM/CO/87/UA140epir GFP assessed as parasite viability after 72 hr by MTT assay. The class given is functional, organism-based.
Data set [3] in a line: Selectivity index, ratio of LC50 for human U937 cells to EC50 for axenic amastigote stage of Leishmania panamensis MHOM/CO/87/UA140epir GFP. It counts as toxicity, cell-based, U-937. The note with it: for selectivity ratio: U937 cells, axenic amastigotes of Leishmania panamensis, read-out: Selectivity Index.
For data set [4], the system named is Leishmania panamensis. Put plainly: Leishmanicidal activity against intracellular amastigote stage of Leishmania panamensis MHOM/CO/87/UA140epir GFP infected in human U937 cells assessed as parasite viability after 72 hr by flow cytometric analysis. It counts as functional, organism-based, U-937.
The nature of data set [5]: Selectivity index, ratio of LC50 for human U937 cells to EC50 for intracellular amastigote stage of Leishmania panamensis MHOM/CO/87/UA140epir GFP infected in human U937 cells. The class given is toxicity, cell-based, U-937. The note with it: for selectivity ratio: read-out: Selectivity Index.
A further data set has as its system U-937. Described as §1. It counts as cell-based. As to conditions: u-937, 72 h.
Where [6] appears, read: Leishmania panamensis, MHOM/CO/87/UA140epir GFP, 72 h, read-out: EC50.
The mark [7] stands for this setting: Leishmania panamensis, MHOM/CO/87/UA140epir GFP, U-937, 72 h, read-out: EC50.

In the case of `Oc1cc(Cl)ccc1Oc1ccc(Cl)cc1Cl` [TRICLOSAN], the CC50 at 72 h in data set [1] is 4.8 µg/mL (≈ 16.6 µM). The EC50 with Leishmania panamensis [2] (setting [6]) worked out at 11.3 µg/mL (≈ 39 µM). Further, the selectivity ratio in data set [3] turned out to be 0.4.
For `Cc1ccc2cccc(OCCCCCCCCCCCCOc3cc(Cl)ccc3Oc3ccc(Cl)cc3Cl)c2n1` the same measures were above 200 µg/mL, above 100 µg/mL and above 2.
As to `Cc1ccc2cccc(O)c2n1` [8-HYDROXY QUINALDINE], the CC50 at 72 h in data set [1] is 7.6 µg/mL (≈ 47.7 µM). The EC50 in the data set on Leishmania panamensis [2] (setting [6]) is 2.6 µg/mL (≈ 16.3 µM). For the same molecule, the selectivity ratio in data set [3] was 2.9.
Regarding `Cc1ccc2cccc(OCCCCCOc3cc(Cl)ccc3Oc3ccc(Cl)cc3Cl)c2n1`, in data set [1], the CC50 at 72 h amounted to 59.2 µg/mL (≈ 115 µM). Moreover, the EC50 in the data set with Leishmania panamensis [2] (setting [6]) was 4.1 µg/mL (≈ 7.93 µM); in the data set on Leishmania panamensis [4] (setting [7]), 2.4 µg/mL (≈ 4.64 µM). The results for the selectivity ratio in data set [5] and in data set [3] were 24.6 and 14.4, respectively.
With `C=CCc1ccc(OCCCCCCCCCOc2cccc3ccc(C)nc23)c(OC)c1`, the CC50 at 72 h in data set [1] was determined as 14.1 µg/mL (≈ 31.5 µM). In addition, the 50% effective concentration (EC50) in the data set on Leishmania panamensis [2] (setting [6]) is 21.1 µg/mL (≈ 47.1 µM). Further, the selectivity ratio in data set [3] is 0.7.
With `C=CCc1ccc(OCCCOc2cccc3ccc(C)nc23)c(OC)c1`, the CC50 at 72 h in data set [1] is 6.8 µg/mL (≈ 18.7 µM). For the same molecule, in the data set with Leishmania panamensis [2] (setting [6]), the half-maximal effective concentration (EC50) came out at 6.9 µg/mL (≈ 19 µM). Moreover, the selectivity ratio in data set [3] came out at 1.
For the molecule MEGLUMINE ANTIMONATE, the LC50 in the data set on U-937 is above 1000 µg/mL. The EC50 with Leishmania panamensis [2] was above 1000 µg/mL; in the data set with Leishmania panamensis [4] (u-937), 6.8 µg/mL. The results for the “Selectivity Index” value in data set [5] (u-937) and in data set [3] (u-937) were above 147.05 and above 1, respectively.
For `C=CCc1ccc(OCCCCCCCCCCCCOc2cccc3ccc(C)nc23)c(OC)c1`, the CC50 at 72 h in data set [1] worked out at 82.9 µg/mL (≈ 169 µM). Further, the EC50 with Leishmania panamensis [2] (setting [6]) was above 100 µg/mL; with Leishmania panamensis [4] (setting [7]), 17.4 µg/mL (≈ 35.5 µM). Moreover, in data set [5], the selectivity ratio stood at 4.7.
Take `C[C@@H]1[C@H](O)[C@@H](C)/C=C/C=C/C=C/C=C/C=C/C=C/C=C/[C@H](O[C@@H]2O[C@H](C)[C@@H](O)[C@H](N)[C@@H]2O)C[C@@H]2O[C@](O)(C[C@@H](O)C[C@@H](O)[C@H](O)CC[C@@H](O)C[C@@H](O)CC(=O)O[C@H]1C)C[C@H](O)[C@H]2C(=O)O` [AMPHOTERICIN B]: in data set [1], the CC50 at 72 h was 38.8 µg/mL (≈ 42 µM). In addition, the EC50 in the data set with Leishmania panamensis [2] (setting [6]) stood at 0.05 µg/mL (≈ 0.0541 µM); in the data set with Leishmania panamensis [4] (setting [7]) it was 0.04 µg/mL (≈ 0.0433 µM). The selectivity ratio in data set [5] amounted to 970; in data set [3] it was 776.
Consider `C=CCc1ccc(OCCCCOc2cccc3ccc(C)nc23)c(OC)c1`, for which the CC50 at 72 h in data set [1] worked out at 31.3 µg/mL (≈ 82.9 µM). In addition, the EC50 in the data set with Leishmania panamensis [2] (setting [6]) is 38.9 µg/mL (≈ 103 µM); with Leishmania panamensis [4] (setting [7]) it was above 31.3 µg/mL. Also, the selectivity ratio was below 1 in data set [5] and 0.5 in data set [3].
Taken in the same sequence, the figures for `Cc1ccc2cccc(OCCCOc3cc(Cl)ccc3Oc3ccc(Cl)cc3Cl)c2n1` were above 200 µg/mL, 23.6 µg/mL (≈ 48.3 µM), 6.4 µg/mL (≈ 13.1 µM), above 31.2 and above 8.5.
Take `C=CCc1ccc(OCCCCCCCCOc2cccc3ccc(C)nc23)c(OC)c1`: in data set [1], the CC50 at 72 h was 14.7 µg/mL (≈ 33.9 µM). Also, the EC50 was 29.6 µg/mL (≈ 68.3 µM) in the data set on Leishmania panamensis [2] (setting [6]) and 3.9 µg/mL (≈ 8.99 µM) in the data set with Leishmania panamensis [4] (setting [7]). The values for the selectivity ratio in data set [5] and in data set [3] were 3.8 and 0.5, respectively.
In the case of `C=CCc1ccc(OCCCCCOc2cccc3ccc(C)nc23)c(OC)c1`, the CC50 at 72 h in data set [1] is 10.5 µg/mL (≈ 26.8 µM). Further, the EC50 with Leishmania panamensis [2] (setting [6]) was determined as 9.5 µg/mL (≈ 24.3 µM). Further, in data set [3], the selectivity ratio came to 1.
Regarding `Cc1ccc2cccc(OCCCCCCCCCOc3cc(Cl)ccc3Oc3ccc(Cl)cc3Cl)c2n1`, the CC50 at 72 h in data set [1] is above 200 µg/mL. Moreover, the EC50 in the data set with Leishmania panamensis [2] (setting [6]) was above 100 µg/mL. Besides, in data set [3], the selectivity ratio was above 2.
Taken in the same sequence, the figures for `C=CCc1ccc(O)c(OC)c1` [EUGENOL] were 14.2 µg/mL (≈ 86.5 µM), 21.4 µg/mL (≈ 130 µM) and 0.7.
For `Cc1ccc2cccc(OCCCCCCCCOc3cc(Cl)ccc3Oc3ccc(Cl)cc3Cl)c2n1` the same measures were above 200 µg/mL, above 100 µg/mL and above 2.
On to `Cc1ccc2cccc(OCCCCOc3cc(Cl)ccc3Oc3ccc(Cl)cc3Cl)c2n1`, for which the CC50 at 72 h in data set [1] was above 200 µg/mL. Besides, the half-maximal effective concentration (EC50) was 9.7 µg/mL (≈ 19.3 µM) with Leishmania panamensis [2] (setting [6]) and above 100 µg/mL in the data set on Leishmania panamensis [4] (setting [7]). Also, the selectivity ratio was above 2 in data set [5] and above 20.6 in data set [3].
